This experiment deals with Transcription factor Sp1 (Homo sapiens, UniProt P08047). Put plainly: Inhibition of Sp1 (unknown origin) by luciferase reporter gene assay.
Sequence of Transcription factor Sp1 (P08047 whole entry): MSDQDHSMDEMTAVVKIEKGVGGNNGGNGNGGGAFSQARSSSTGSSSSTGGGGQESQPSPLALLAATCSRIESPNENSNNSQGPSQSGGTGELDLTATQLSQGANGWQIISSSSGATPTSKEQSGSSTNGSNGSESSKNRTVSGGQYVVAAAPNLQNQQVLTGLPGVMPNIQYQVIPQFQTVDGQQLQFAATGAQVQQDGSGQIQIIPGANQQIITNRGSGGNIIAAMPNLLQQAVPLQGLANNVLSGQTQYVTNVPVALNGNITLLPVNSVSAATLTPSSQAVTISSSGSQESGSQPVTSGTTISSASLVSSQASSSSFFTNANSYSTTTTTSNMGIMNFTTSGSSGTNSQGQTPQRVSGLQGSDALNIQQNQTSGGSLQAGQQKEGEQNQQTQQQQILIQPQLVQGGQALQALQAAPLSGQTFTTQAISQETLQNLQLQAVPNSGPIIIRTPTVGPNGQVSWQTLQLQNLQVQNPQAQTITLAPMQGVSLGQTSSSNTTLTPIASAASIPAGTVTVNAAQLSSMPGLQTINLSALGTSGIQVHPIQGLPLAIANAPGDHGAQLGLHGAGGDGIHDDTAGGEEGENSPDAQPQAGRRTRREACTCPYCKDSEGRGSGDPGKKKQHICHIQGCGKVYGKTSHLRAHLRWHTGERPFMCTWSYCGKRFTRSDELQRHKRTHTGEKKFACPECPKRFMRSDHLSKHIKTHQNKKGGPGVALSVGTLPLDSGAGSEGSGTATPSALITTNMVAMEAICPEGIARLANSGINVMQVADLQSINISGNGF

In turn, `C=C1C(=O)O[C@H]2[C@H]1CC/C(C)=C/CC[C@@]1(C)O[C@@H]21` [PARTHENOLIDE] came in with a 50% inhibitory concentration (IC50) of 30.2 µM.

Regarding `O=C(N/N=C/c1ccccc1)c1ccc(F)cc1`, inhibition was half-maximal at 57.7 µM (IC50).

The record behind these values is BindingDB's records for doi:10.1007/s00044-011-9882-z (n/a, 2012).
